Assay [1] addresses 20S proteasome chymotrypsin-like activity (CT-L) (Homo sapiens, UniProt P28074). The experiment in a line: 20S proteasome chymotrypsin-like (CT-L) activity inhibition. The assay is classed as biochemical. From the text:
As used herein, the term “inhibitor” is meant to describe a compound that blocks or reduces an activity of an enzyme (for example, inhibition of proteolytic cleavage of standard fluorogenic peptide substrates such as suc-LLVY-AMC, Box-LLR-AMC and Z-LLE-AMC, inhibition of various catalytic activities of the 20S proteasome). An inhibitor can act with competitive, uncompetitive, or noncompetitive inhibition. An inhibitor can bind reversibly or irreversibly, and therefore the term includes compounds that are suicide substrates of an enzyme. An inhibitor can modify one or more sites on or near the active site of the enzyme, or it can cause a conformational change elsewhere on the enzyme.
The chymotrypsin-like activity of 20S proteasome is characterized by cleavage of peptides in the immediate vicinity of large hydrophobic residues. In particular, the chymotrypsin-like activity of Ntn hydrolases can be determined by cleavage of a standard substrate. Examples of such substrates are known in the art. For example, a leucylvalinyltyrosine derivative can be used. Enzyme kinetic assays are disclosed in U.S. application Ser. No. 09/569748, Example 2 and Stein et al., Biochem. (1996), 35, 3899-3908.

For assay [2], the target named is T1, Cell-based CT-L (proteasome chymotrypsin-like activity) (Homo sapiens, UniProt P28074).
T1 construct: endogenous in cells
T1 sequence (P28074 60-263): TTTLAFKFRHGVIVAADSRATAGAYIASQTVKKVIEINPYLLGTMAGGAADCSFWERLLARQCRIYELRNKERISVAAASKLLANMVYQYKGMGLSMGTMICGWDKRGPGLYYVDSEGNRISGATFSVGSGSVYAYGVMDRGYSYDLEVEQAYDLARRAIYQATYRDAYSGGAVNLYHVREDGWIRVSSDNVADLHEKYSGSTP
The assay is described as follows: Cell-based proteasome CT-L activity inhibition.

The IC50 is the midpoint of a concentration-inhibition curve. A lower IC50 goes with higher potency.

Molecules are shown by their SMILES.

Take `CC(C)C[C@H](NC(=O)CN1CCOCC1)C(=O)N[C@@H](Cc1ccccc1)C(=O)N[C@@H](CC(C)C)C(=O)[C@@]1(C)CO1` [Compound 18]: the IC50 in assay [1] and in assay [2] was below 50 nM in each case.
`COc1ccc(NC(=O)N[C@@H](CC(C)C)C(=O)N[C@@H](Cc2ccccc2)C(=O)N[C@@H](CC(C)C)C(=O)[C@@]2(C)CO2)cc1` [Compound 17]: the IC50 in assay [1] and in assay [2] was below 50 nM in each case.
As to `CC(C)C[C@H](NC(=O)[C@H](CCc1ccccc1)NC(=O)CN1CCOCC1)C(=O)N[C@@H](Cc1ccc(F)cc1)C(=O)N[C@@H](CC(C)C)C(=O)[C@@]1(C)CO1` [Compound 9], the IC50 in assay [1] and in assay [2] was below 50 nM in each case.
Turning to `CC(C)C[C@H](NC(=O)c1ccccc1)C(=O)N[C@@H](Cc1ccccc1)C(=O)N[C@@H](CC(C)C)C(=O)[C@@]1(C)CO1` [Compound 3], the IC50 in assay [1] and in assay [2] was below 50 nM each time.
Consider `CC(C)C[C@H](NS(=O)(=O)c1ccsc1)C(=O)N[C@@H](Cc1ccccc1)C(=O)N[C@@H](CC(C)C)C(=O)[C@@]1(C)CO1` [Compound 14], for which the IC50 in assay [1] and in assay [2] was below 50 nM in each case.
Regarding `Cc1ccc(CCC(=O)N[C@@H](CC(C)C)C(=O)N[C@@H](Cc2ccccc2)C(=O)N[C@@H](CC(C)C)C(=O)[C@@]2(C)CO2)cc1` [Compound 8], the IC50 in assay [1] and in assay [2] was below 50 nM throughout.
On to `CC(C)C[C@H](NC(=O)C1CCN(S(=O)(=O)c2cccs2)CC1)C(=O)N[C@@H](Cc1ccccc1)C(=O)N[C@@H](CC(C)C)C(=O)[C@@]1(C)CO1` [Compound 7], for which the IC50 in assay [1] and in assay [2] was below 500 nM each time.
On to `COc1ccc(NC(=S)N[C@@H](CC(C)C)C(=O)N[C@@H](Cc2ccccc2)C(=O)N[C@@H](CC(C)C)C(=O)[C@@]2(C)CO2)cc1` [Compound 16], for which the IC50 in assay [1] and in assay [2] was below 50 nM each time.
In the case of `CC(=O)N[C@@H](CCc1ccccc1)C(=O)N[C@@H](CC(C)C)C(=O)N[C@@H](CO)C(=O)N[C@@H](CC(C)C)C(=O)[C@@]1(C)CO1` [Compound 2], the IC50 in assay [1] was below 50 nM; in assay [2], below 500 nM.

The values are drawn from patent US8088741B2, “Compounds for enzyme inhibition” (Onyx Therapeutics, Inc., priority 2004, dated 2012).
